Experimental findings from patent US8758777B2, “Pharmaceutical compositions comprising water-soluble sulfonate-protected nanoparticles and uses thereof” (Bar-Ilan University, priority 2010, dated 2014) are described below.

Each structure is given as a SMILES string.

The experiment concerns wild-type HSV-1 McIntyre strain. Briefly: Antiviral assay (plaque reduction) in Vero cells. Particulars: 50-1000 μg/ml; 80 PFU; 48 hours. It is filed as cell-based, herpes simplex virus-1 (HSV-1). As for the experimental part: Antiviral assay: The virus used was the wild-type HSV-1 McIntyre strain. For the inhibition experiments, 7×10^4 Vero cells/well were grown in 24 well plates.
Cell monolayers were infected with HSV-1 in the presence or absence of the nanoparticles, as described in the antiviral assay in the Experimental, and observed for the presence of plaques after 48 hours. Plaque formation was obtained by the addition of γ-globulins, which prevents virus dissemination while retaining cell-to-cell spread. FIG. 3A (panels a-h) show images of the cell cultures after 48 hours.

Take `O=S(=O)([O-])CCS.[Na+]` [soluble MES, sodium 2-mercaptoethanesulfonate]: the “inhibition of virus infection (number of plaques and average size)” value is on record as “completely ineffective”.
